From patent EP4772514A1, “MACROCYCLIC COMPOUNDS, PREPARATION METHOD THEREFOR, AND USE THEREOF” (Genfleet Therapeutics (Shanghai) Inc., priority 2023, dated 2025)
pIC50: −log10 of the molar value.

Legend:
Format in all cases: cell-based
p-ERK [1] = experiment: Cell p-ERK assay (HTRF, Advance ERK phospho-T202/Y204 kit) in NCI-H441 cells; conditions: Homo sapiens, NCI-H441, 3 h, NCI-H441, human non-small cell lung cancer cell strain, KRAS G12V mutation; 3 h compound incubation
In short: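 AsPC-1 (KRAS G12D) or NCI-H441 (KRAS G12V) cells seeded overnight, then treated 3 h at 37 °C with compound (0.1% DMSO) in RPMI-1640/10% FBS. Lysates assayed for ERK phospho-T202/Y204 by HTRF; inhibition vs DMSO and blank wells, IC50 from four-parameter fit.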

p-ERK [2] = experiment: Cell p-ERK assay (HTRF, Advance ERK phospho-T202/Y204 kit) in AsPC-1 cells; conditions: ASPC1; AsPC-1, human pancreatic cancer cell strain, KRAS G12D mutation; 3 h compound incubation
Protocol: AsPC-1 cells were purchased from ATCC, Cat. No. CRL-1682; NCI-H441 cells were purchased from ATCC, Cat. No. HTB-174; RPMI-1640 medium was purchased from Gibco, Cat. No. 11875-093; FBS was purchased from Gibco, Cat. No. 10099-141C; penicillin/streptomycin double-antibiotic solution (PS) was purchased from Gibco, Cat. No. 15140-122; trypsin (containing EDTA) was purchased from Gibco, Cat. No. 25200-072; DMSO was purchased from VWRAMRESCO, Cat. No. 0231-500ML; 96-well cell culture plates were purchased from Corning, Cat. No. 3599; white-bottomed, opaque 96-well plates were purchased from Cisbio, Cat. No. 66PL96025; Advance ERK phospho-T202/Y204 kit was purchased from Cisbio, Cat. No. 64AERPEH; cell counter was purchased from CHEMOMETEC, model: NC-200; microplate reader was purchased from PerkinElmer, model: EnVision.
AsPC-1, a human pancreatic cancer cell strain endogenously containing a KRAS^G12D mutation, was cultured in a complete medium containing RPMI-1640 + 10% FBS + 1% PS. NCI-H441, a human non-small cell lung cancer cell strain endogenously containing a KRAS^G12V mutation, was cultured in a complete medium containing RPMI-1640 + 10% FBS + 1% PS.
The cells were digested with trypsin (containing EDTA), collected in their corresponding complete media, and counted. The density of the cell suspensions was adjusted with their corresponding complete media, and AsPC-1 cells (10000 cells/well) or NCI-H441 cells (20000 cells/well) were seeded into a 96-well cell culture plate, with the volume of the medium in each well being 80 µL. The cell culture plate was incubated in an incubator at 37 °C with 5% CO2 overnight. A series of 3.16-fold gradient dilutions of a 1000× compound stock solution were prepared with DMSO, and then diluted 200-fold with the complete medium described above to give 5× compound stock solutions. On the day after cell seeding, 20 µL of the 5× compound stock solution was added to each cell culture well. As a result, the final concentration of the compound in the cell culture well became 1×, and the DMSO content in the well was 0.1%. In addition to the compound-treated wells described above, cell-containing DMSO control wells were also set. A complete medium containing 0.5% DMSO was added at 20 µL/well. After the mixture was well mixed, the culture plate was incubated in the incubator at 37 °C with 5% CO2 for another 3 h. The medium was then removed from the culture wells, and 50 µL of cell lysis buffer (from Advance ERK phospho-T202/Y204 kit) was added to each well. The mixture was well mixed, incubated for 30 min, and then transferred to a white-bottomed, opaque 96-well assay plate at 16 µL/well, and separately, 16 µL of cell lysis buffer was added to additional wells (serving as blank wells) in the assay plate. After the transfer was completed, 4 µL of p-ERK HTRF antibody mixture (from Advance ERK phospho-T202/Y204 kit) was added to each well of the assay plate, followed by a 4-hour incubation. The HTRF signal values (RLU) were then measured using a microplate reader, and the inhibition rate of the compound against p-ERK levels was calculated as follows: IR(%) = (RLUDMSO - RLUcompound)/(RLUDMSO - RLUblank) × 100%, where RLUDMSO is the average HTRF signal value from the DMSO control well samples, RLU is the average HTRF signal value from the blank well samples, and RLUcompound is the HTRF signal value from the compound-treated well samples. Using an XLfit software, the IR(%) values were plotted against the logarithm of the compound concentrations, and the dose-response curves were fitted using the four-parameter method to calculate the IC50 values.

NCI-H441 cells = experiment: 3D cell proliferation assay (CellTiter Glo-3D) in NCI-H441 cells; conditions: Homo sapiens, NCI-H441, 120 h, NCI-H441, human lung cancer cell strain, KRAS G12V mutation; 3D culture, 2% FBS, 5 days; read-out: H441 AP IC50
In short: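 After a 5-day exposure at 37 °C to 3.16-fold serial dilutions (final DMSO 0.1%) in 2% FBS RPMI-1640, ATP luminescence (CellTiter-Glo 3D) was read. Cells were AsPC-1 (KRAS G12D) or NCI-H441 (KRAS G12V), 800 per well; inhibition used DMSO and medium-only controls, with four-parameter curve fitting giving IC50.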

AsPC-1 cells = experiment: 3D cell proliferation assay (CellTiter Glo-3D) in AsPC-1 cells; conditions: ASPC1, 120 h; AsPC-1, human pancreatic cancer cell strain, KRAS G12D mutation; 3D culture, 2% FBS, 5 days; read-out: AsPC-1 AP IC50
Description: MIA PaCa-2 cells were purchased from ATCC, Cat. No. CRL-1420; AsPC-1 cells were purchased from ATCC, Cat. No. CRL-1682; NCI-H441 cells were purchased from ATCC, Cat. No. HTB-174; NCI-H1975 cells were purchased from ATCC, Cat. No. CRL-5908; DMEM medium was purchased from Gibco, Cat. No. 11995-065; RPMI-1640 medium was purchased from Gibco, Cat. No. 11875-093; FBS was purchased from Gibco, Cat. No. 10099-141C; penicillin/streptomycin double-antibiotic solution (PS) was purchased from Gibco, Cat. No. 15140-122; Horse serum was purchased from Gibco, Cat. No. 16050130; trypsin (containing EDTA) was purchased from Gibco, Cat. No. 25200-072; DMSO was purchased from VWRAMRESCO, Cat. No. 0231-500ML; 384-well cell culture plates were purchased from Corning, Cat. No. 3830; white-bottomed, opaque 384-well assay plates were purchased from Corning, Cat. No. 3570; CellTiter Glo-3D kit was purchased from Promega, Cat. No. G9683; cell counter was purchased from CHEMOMETEC, model: NC-200; microplate reader was purchased from PerkinElmer, model: EnVision.
MIA PaCa-2, a human pancreatic cancer cell strain endogenously containing a KRAS^G12Cmutation, was cultured in a complete medium containing DMEM + 10% FBS + 2.5% Horse serum + 1% PS. AsPC-1, a human pancreatic cancer cell strain endogenously containing a KRAS^G12D mutation, was cultured in a complete medium containing RPMI-1640 + 10% FBS + 1% PS. NCI-H441 cells, a human lung cancer cell strain endogenously containing a KRAS^G12V mutation, were cultured in a complete medium containing RPMI-1640 + 10% FBS + 1% PS. NCI-H1975, a KRAS wild-type human lung cancer cell strain whose cell proliferation […], was cultured in a complete medium containing RPMI-1640 + 10% FBS + 1% PS.
The cells were digested with trypsin (containing EDTA), collected in their respective low-serum complete media containing 2% FBS (for MIA Paca-2 cell culture: DMEM + 2% FBS + 0.5% Horse serum + 1% PS), and counted. After the cell density was adjusted as required, MIA PaCa-2 cells (200 cells/well), AsPC-1 cells (800 cells/well), NCI-H441 cells (800 cells/well), or NCI-H1975 cells (400 cells/well) were seeded into a 384-well cell culture plate, with the volume of the medium in each well being 45 µL. The cell culture plate was incubated in an incubator at 37 °C with 5% CO2 overnight. A series of 3.16-fold gradient dilutions of a 1000× compound stock solution were prepared with DMSO, and then diluted 100-fold with the complete medium containing 2% FBS described above to give 10× compound stock solutions. On the day after cell seeding, 5 µL of the 10× compound stock solution was added to each cell culture well. As a result, the final concentration of the compound in the cell culture well became 1×, and the DMSO content in the well was 0.1%. In addition to the compound-treated wells described above, cell-containing DMSO control wells (with 5 µL of the complete medium containing 1% DMSO added to each well) and cell-free medium control wells (containing 50 µL of the complete medium with 2% FBS) were also set. The culture plate was incubated in an incubator at 37 °C with 5% CO2 for another 5 days, and then 30 µL of CellTiter-Glo working solution was added to each well. The mixture was well mixed, incubated for 30 min, left to stand at room temperature for 30 min, and then transferred to a white-bottomed, opaque 384-well assay plate at 40 µL/well. The chemiluminescence values (RLU) were measured using a microplate reader, and the cell proliferation inhibition rate for each well was calculated: IR(%) = (RLUDMSO - RLUcompound)/(RLUDMSO - RLUblank) × 100%, where RLUDMSO is the average RLU signal value from the DMSO control well samples, RLUblank is the average RLU signal value from the medium control well samples, and RLUcompound is the RLU signal value from the compound-treated well samples. […]

| Compound | pIC50 (p-ERK [1]) | pIC50 (p-ERK [2]) | pIC50 (NCI-H441 cells) | pIC50 (AsPC-1 cells) |
| --- | --- | --- | --- | --- |
| CO[C@@H](C)c1ncc(C#CCN2CCS(=O)(=O)CC2)cc1-c1c2c(cn1C(C)C)/C=C/c1csc(n1)C[C@H](NC(=O)[C@H]1[C@H](C)[C@@H]1C)C(=O)N1CCC[C@H](N1)C(=O)OCC(C)(C)C2 (single isomer, unassigned) [Compound Z10] | 9.08 | 8.92 | 9.38 | 9.25 |
| CO[C@@H](C)c1ncc(C#CCN2CCS(=O)(=O)CC2)cc1-c1c2c(cn1C1CCCC1)/C=C/c1csc(n1)C[C@H](NC(=O)[C@H]1[C@H](C)[C@@H]1C)C(=O)N1CCC[C@H](N1)C(=O)OCC(C)(C)C2 (atropisomer, axis not shown; (Ra)) [Compound Z125, (1r,2R,3S)-N-((4^2Z,8^3S,2E,6S)-1^1-cyclopentyl-(Ra)-1^5-(5-(3-(1,1-dioxidothiomorpholino)prop-1-yn-1-yl)-2-((S)-1-methoxyethyl)pyridin-3-yl)-12,12-dimethyl-7,9-dioxo-8^1,8^2,8^3,8^4,8^5,8^6-hexahydro-1^1H-10-oxa-4(4,2)-thiazola-8(1,3)-pyridazina-1(3,4)-pyrrolycyclotridec-2-en-6-yl)-2,3-dimethylcyclopropane-1-carboxamide] | 9.28 | 9.29 | 9.44 | 9.46 |
| CCn1cc2c(c1-c1cc(C#CCN3CCC(C#N)CC3)cnc1[C@H](C)OC)CC(C)(C)COC(=O)[C@@H]1CCCN(N1)C(=O)[C@@H](NC(=O)[C@H]1[C@@H]3COC[C@@H]31)Cc1nc(co1)/C=C/2 (atropisomer, axis not shown; (Ra)) [Compound Z85, (1R,5S,6r)-N-((4^2Z,8^3S,2E,6S)-(Ra)-1^5-(5-(3-(4-cyanopiperidin-1-yl)prop-1-yn-1-yl)-2-((S)-1-methoxyethyl)pyridin-3-yl)-1^1-ethyl-12,12-dimethyl-7,9-dioxo-8^1,8^2,8^3,8^4,8^5,8^6-hexahydro-1^1H-10-oxa-4(4,2)-oxazola-8(1,3)-pyridazina-1(3,4)-pyrrolacyclotridecaphan-2-en-6-yl)-3-oxabicyclo[3.1.0]hexane-6-carboxamide] | 9.70 | 10.40 |  |  |

The remaining lines, values ahead:

| pIC50 (p-ERK [1]) | pIC50 (p-ERK [2]) | pIC50 (NCI-H441 cells) | pIC50 (AsPC-1 cells) | Compound |
| --- | --- | --- | --- | --- |
| 9.54 | 9.82 | 9.70 | 9.82 | CCn1c(F)c2c(c1-c1cc(C#CCN3CCC(C#N)(CN)CC3)cnc1[C@H](C)OC)CC(C)(C)COC(=O)[C@@H]1CCCN(N1)C(=O)[C@@H](NC(=O)[C@H]1[C@H](C)[C@@H]1C)Cc1nc(cs1)/C=C/2 (atropisomer, axis not shown; (Ra)) [Compound Z145, (1r,2R,3S)-N-((4^2Z, 8^3S, 2E, 6S)-(Ra)-1^5-(5-(3-(4-(aminomethyl)-4-cyanopiperidin-1-yl)prop-1-yn-1-yl)-2-((S)-1-methoxyethy)pyridin-3-yl)-1^1-ethyl-1^2-fluoro-12,12-dimethyl-7,9-dioxo-8^1,8^2,8^3,8^4,8^5,8^6-hexahydro-1^1H-10-oxa-4(4,2)-thiazola-8(1,3)-pyridazina-1(3,4)-pyrrolacyclotridecaphan-2-en-6-yl)-2,3-dimethylcyclopropane-1-carboxamide] |
| 8.46 | 8.31 | 8.34 | 8.29 | CO[C@@H](C)c1ncc(C#CCN2CCC(C#N)(CN)CC2)cc1-c1c2c(nn1C(C)C)/C=C/c1csc(n1)C[C@H](NC(=O)[C@H]1[C@H](C)[C@@H]1C)C(=O)N1CCC[C@H](N1)C(=O)OCC(C)(C)C2 (atropisomer, axis not shown; (Ra)) [Compound Z62] |
| 8.74 | 8.64 | 8.84 | 8.62 | CCn1nc2c(c1-c1cc(C#CCN3CCC(C#N)(CN)CC3)cnc1[C@H](C)OC)CC(C)(C)COC(=O)[C@@H]1CCCN(N1)C(=O)[C@@H](NC(=O)[C@H]1[C@H](C)[C@@H]1C)Cc1nc(cs1)/C=C/2 [Compound Z119] |
